From patent publication US4120954A, “2,2',2"-[S-Phenenyltris(carbonylimino) ]tris-2-deoxy-D-glucopyranose and salts thereof” (American Cyanamid Company, priority 1977, dated 1978)

System: shunt pathway
Test: Test Code 036 (C-Shunt inhibitor): lysis of fragile human erythrocytes in autologous serum via shunt pathway activated by cobra venom factor
Type: cell-based
Conditions: appropriate dilutions of test compound
Source text: An active inhibitor protects C2 from C1 and C4; (ii) Test, Code 035 (c3-C9 inhibitor) -- This test determines the ability of the late components of human complement (C3-C9) to lyse EAC 142 in the presence of appropriate dilutions of the test compound. An active inhibitor protects EAC 142 from lysis by human C3-C9; (iii) Test, Code 036 (C-Shunt inhibitor) -- In this test human erythrocytes rendered fragile are lysed in autologous serum via the shunt pathway activated by cobra venom factor in the presence of appropriate dilutions of the test compound. Inhibition of the shunt pathway results in failure of lysis; (iv) Forssman Vasculitis Test -- Here, the well known complement dependent lesion, Forssman vasculitis, is produced in guinea pigs by intradermal injection of rabbit anti-Forssman antiserum. […]

## O=C(N[C@H]1C(OS(=O)(=O)O)O[C@H](COS(=O)(=O)O)[C@@H](OS(=O)(=O)O)[C@@H]1OS(=O)(=O)O)c1cc(C(=O)N[C@H]2C(OS(=O)(=O)O)O[C@H](COS(=O)(=O)O)[C@@H](OS(=O)(=O)O)[C@@H]2OS(=O)(=O)O)cc(C(=O)N[C@H]2C(OS(=O)(=O)O)O[C@H](COS(=O)(=O)O)[C@@H](OS(=O)(=O)O)[C@@H]2OS(=O)(=O)O)c1 (stereo partly drawn) [2,2',2"-[s-Phenenyltris(carbonylimino)]tris-2-deoxy-D-glucopyranose dodecakis (H-sulfate) dodecasalt with trimethylamine]
  Shunt Inhibition 036 Wells: +3 Wells
